Experimental data published in patent publication US7115642B2, “Substituted diphenyl isoxazoles, pyrazoles and oxadiazoles useful for treating HCV infection” (priority 2003, dated 2006).

Tested on: HCV replicon (5-2 Luc replicon-comprising cells)
Assay: HCV replicon assay (luciferase)
Assay type: cell-based, Hepatitis C virus
Conditions: 5-2 Luc replicon cells, luciferase readout; read-out: Replicon IC50
Text: In one embodiment, the inhibitory activity of the compounds can be confirmed in a replicon assay that assesses the ability of a test compound to block or inhibit HCV replication in replicon cells. One example of a suitable replicon assay is the liver cell-line Huh 7-based replicon assay described in Lohmann et al., 1999, Science 285:110–113. A specific example of this replicon assay which utilizes luciferase translation is provided in the Examples Section. In one embodiment of this assay, the amount of test compound that yields a 50% reduction in translation as compared to a control cell (IC50) may be determined.
The inhibitory activity of certain exemplary compounds of the invention was confirmed using an HCV replicon assay. The HCV replicon can include such features as the HCV 5′ untranslated region including the HCV IRES, the HCV 3′ untranslated region, selected HCV genes encoding HCV polypeptides, selectable markers, and a reporter gene such as luciferase, GFP, etc. In the assay, actively dividing 5-2 Luc replicon-comprising cells (obtained from Ralf Bartenschlager; see Lohmann et al., 1999, Science 285:110–113) were seeded at a density of between about 5,000 and 7,500 cells/well onto 96 well plates (about 90 μl of cells per well) and incubated at 37° C. and 5% CO2 for 24 hours. Then, the test compound (in a volume of about 10 μl) was added to the wells at various concentrations and the cells were incubated for an additional 24 hours before luciferase assay. Briefly, the Bright-Glo reagent was diluted 1:1 with PBS and 100 μl of diluted reagent was added to each well. After 5 min of incubation at room temperature, luciferin emission was quantified with a luminometer. In this assay, the amount of test compound that yielded a 50% reduction in luciferase activity (IC50) was determined.
In TABLE 1, a value of “+” indicates an IC50 of 10 μM or less in the specified assay; a value of “−” indicates an IC50 of greater than 10 μM in the specified assay.

Compound: CN(c1cccc(Cl)c1-c1cc(-c2cccc(NC(=O)C(Cl)Cl)c2)on1)C1CCN(S(C)(=O)=O)CC1 [Compound 583]
- IC50: < 10 µM

Compound: CCNC(=O)N1CCC(N(C)c2cccc(Cl)c2-c2cc(-c3cccc(NC(=O)C(Cl)Cl)c3)on2)CC1 [Compound 584]
- IC50: < 10 µM

Compound: CC(=O)N1CCCC(Oc2cccc(Cl)c2-c2cc(-c3cccc(NC(=O)C(Cl)Cl)c3)on2)C1 (stereo not drawn) [Compound 585]
- IC50: < 10 µM

Compound: CS(=O)(=O)N1CCCC(Oc2cccc(Cl)c2-c2cc(-c3cccc(NC(=O)C(Cl)Cl)c3)on2)C1 (stereo not drawn) [Compound 586]
- IC50: < 10 µM

Compound: CCNC(=O)N1CCCC(Oc2cccc(Cl)c2-c2cc(-c3cccc(NC(=O)C(Cl)Cl)c3)on2)C1 (stereo not drawn) [Compound 587]
- IC50: < 10 µM

Compound: O=C(Nc1cccc(-c2cc(-c3c(Cl)cccc3N3CCC(NCc4ccccn4)CC3)no2)c1)C(Cl)Cl [Compound 588]
- IC50: < 10 µM

Compound: CC(C)(C)OC(=O)NCC1CCN(c2cccc(Cl)c2-c2cc(-c3cccc(NC(=O)C(Cl)Cl)c3)on2)CC1 [Compound 589]
- IC50: < 10 µM

Compound: COC(=O)C1CC(Oc2cccc(Cl)c2-c2cc(-c3cccc(NC(=O)C(Cl)Cl)c3)on2)CN1C(=O)OC(C)(C)C (stereo not drawn) [Compound 590]
- IC50: < 10 µM

Compound: COC(=O)C1CC(Oc2cccc(Cl)c2-c2cc(-c3cccc(NC(=O)C(Cl)Cl)c3)on2)CN1 (stereo not drawn) [Compound 591]
- IC50: < 10 µM

Compound: CC(C)(C)OC(=O)N1CCC(Oc2cccc(Cl)c2-c2cc(-c3cccc(NC(=O)C(Cl)Cl)c3)on2)C1 (stereo not drawn) [Compound 592]
- IC50: < 10 µM

Compound: O=C(Nc1cccc(-c2cc(-c3c(Cl)cccc3OC3CCNC3)no2)c1)C(Cl)Cl (stereo not drawn) [Compound 593]
- IC50: < 10 µM

Compound: CC(=O)N1CCC(Oc2cccc(Cl)c2-c2cc(-c3cccc(NC(=O)C(Cl)Cl)c3)on2)C1 (stereo not drawn) [Compound 595]
- IC50: < 10 µM

Compound: CS(=O)(=O)N1CCC(Oc2cccc(Cl)c2-c2cc(-c3cccc(NC(=O)C(Cl)Cl)c3)on2)C1 (stereo not drawn) [Compound 596]
- IC50: < 10 µM

Compound: CCNC(=O)N1CCC(Oc2cccc(Cl)c2-c2cc(-c3cccc(NC(=O)C(Cl)Cl)c3)on2)C1 (stereo not drawn) [Compound 597]
- IC50: < 10 µM

Compound: C[N+](C)(C)CCOc1cccc(Cl)c1-c1cc(-c2cccc(NC(=O)C(Cl)Cl)c2)on1 [Compound 598]
- IC50: < 10 µM

Compound: CCNC(=O)Oc1cccc(Cl)c1-c1cc(-c2cccc(NC(=O)C(Cl)Cl)c2)on1 [Compound 600]
- IC50: < 10 µM

Compound: CN(C)C(=O)Oc1cccc(Cl)c1-c1cc(-c2cccc(NC(=O)C(Cl)Cl)c2)on1 [Compound 601]
- IC50: < 10 µM

Compound: O=C(Nc1cccc(-c2cc(-c3c(Cl)cccc3OC(=O)N3CCOCC3)no2)c1)C(Cl)Cl [Compound 602]
- IC50: < 10 µM

Compound: O=C(Nc1cccc(-c2cc(-c3c(Cl)cccc3OP(=O)(O)O)no2)c1)C(Cl)Cl [Compound 603]
- IC50: < 10 µM

Compound: O=C(Nc1cccc(-c2cc(-c3c(Cl)cccc3OCc3ccncc3)no2)c1)C(Cl)Cl [Compound 604]
- IC50: < 10 µM

Compound: O=C(Nc1cccc(-c2cc(-c3c(Cl)cccc3OCc3cccnc3)no2)c1)C(Cl)Cl [Compound 605]
- IC50: < 10 µM

Compound: CCCNC(=O)Oc1cccc(Cl)c1-c1cc(-c2cccc(NC(=O)C(Cl)Cl)c2)on1 [Compound 606]
- IC50: < 10 µM

Compound: COP(=O)(O)Oc1cccc(Cl)c1-c1cc(-c2cccc(NC(=O)C(Cl)Cl)c2)on1 [Compound 607]
- IC50: < 10 µM

Compound: N#Cc1ccccc1-c1cc(-c2cccc(NC(=O)C(Cl)Cl)c2)on1 [Compound 610]
- IC50: < 10 µM

Compound: CN1CCN(c2ccccc2-c2cc(-c3cccc(NC(=O)C(Cl)Cl)c3)on2)CC1 [Compound 611]
- IC50: < 10 µM

Compound: O=C(Nc1cccc(-c2cc(-c3ccccc3N3CCOCC3)no2)c1)C(Cl)Cl [Compound 612]
- IC50: < 10 µM

Compound: N#Cc1cccc(F)c1-c1cc(-c2cccc(NC(=O)C(Cl)Cl)c2)on1 [Compound 613]
- IC50: < 10 µM

Compound: O=C(Nc1cccc(-c2cc(-c3ccccc3N3CCN(c4ccccn4)CC3)no2)c1)C(Cl)Cl [Compound 614]
- IC50: > 10 µM

Compound: O=C(Nc1cccc(-c2cc(-c3c(Cl)cccc3N3CCC4(CC3)OCCO4)no2)c1)C(Cl)Cl [Compound 615]
- IC50: < 10 µM

Compound: O=C(Nc1cccc(-c2cc(-c3c(Cl)cccc3N3CCSCC3)no2)c1)C(Cl)Cl [Compound 616]
- IC50: < 10 µM

Compound: CC(=O)N1CCN(c2cccc(Cl)c2-c2cc(-c3cccc(NC(=O)C(Cl)Cl)c3)on2)CC1 [Compound 617]
- IC50: < 10 µM

Compound: N#CC1(c2ccccc2)CCN(c2cccc(Cl)c2-c2cc(-c3cccc(NC(=O)C(Cl)Cl)c3)on2)CC1 [Compound 618]
- IC50: < 10 µM

Compound: O=C(Nc1cccc(-c2cc(-c3c(Cl)cccc3N3CCN(c4ccc(Cl)cc4)CC3)no2)c1)C(Cl)Cl [Compound 619]
- IC50: < 10 µM

Compound: O=C(Nc1cccc(-c2cc(-c3c(Cl)cccc3N3CCN(c4cccc(Cl)c4)CC3)no2)c1)C(Cl)Cl [Compound 620]
- IC50: < 10 µM

Compound: O=C(Nc1cccc(-c2cc(-c3ccccc3CO)no2)c1)C(Cl)Cl [Compound 621]
- IC50: < 10 µM

Compound: O=C(Nc1cccc(-c2cc(-c3c(Cl)cccc3N3CCN(C(=O)OCc4ccccc4)CC3)no2)c1)C(Cl)Cl [Compound 622]
- IC50: < 10 µM

Compound: CCOC(=O)N1CCN(c2cccc(Cl)c2-c2cc(-c3cccc(NC(=O)C(Cl)Cl)c3)on2)CC1 [Compound 624]
- IC50: < 10 µM

Compound: NC(=O)C1CCN(c2cccc(Cl)c2-c2cc(-c3cccc(NC(=O)C(Cl)Cl)c3)on2)CC1 [Compound 625]
- IC50: < 10 µM

Compound: CCN1CCN(c2cccc(Cl)c2-c2cc(-c3cccc(NC(=O)C(Cl)Cl)c3)on2)CC1 [Compound 627]
- IC50: < 10 µM

Compound: CN(C)C(=O)CN1CCN(c2cccc(Cl)c2-c2cc(-c3cccc(NC(=O)C(Cl)Cl)c3)on2)CC1 [Compound 628]
- IC50: < 10 µM

Compound: CN(C)CCN1CCN(c2cccc(Cl)c2-c2cc(-c3cccc(NC(=O)C(Cl)Cl)c3)on2)CC1 [Compound 630]
- IC50: < 10 µM

Compound: O=C(Nc1cccc(-c2cc(-c3c(Cl)cccc3N3CCN(CC(=O)N4CCOCC4)CC3)no2)c1)C(Cl)Cl [Compound 631]
- IC50: < 10 µM

Compound: CC(C)N1CCN(c2cccc(Cl)c2-c2cc(-c3cccc(NC(=O)C(Cl)Cl)c3)on2)CC1 [Compound 632]
- IC50: < 10 µM

Compound: CC(=O)N1CCC(COc2cccc(Cl)c2-c2cc(-c3cccc(NC(=O)C(Cl)Cl)c3)on2)CC1 [Compound 634]
- IC50: < 10 µM

Compound: CN(Cc1cccnc1)c1cccc(Cl)c1-c1cc(-c2cccc(NC(=O)C(Cl)Cl)c2)on1 [Compound 635]
- IC50: < 10 µM

Compound: O=C(Nc1cccc(-c2cc(-c3c(Cl)cccc3N3CCc4ccccc4C3)no2)c1)C(Cl)Cl [Compound 636]
- IC50: < 10 µM

Compound: O=C(Nc1cccc(-c2cc(-c3c(Cl)cccc3N3CCC(Cc4ccccc4)CC3)no2)c1)C(Cl)Cl [Compound 637]
- IC50: < 10 µM

Compound: O=C(Nc1cccc(-c2cc(-c3c(Cl)cccc3N3CCC(c4ccccc4)CC3)no2)c1)C(Cl)Cl [Compound 638]
- IC50: < 10 µM

Compound: CC(C)(C)OC(=O)N1CCC(CCOc2cccc(Cl)c2-c2cc(-c3cccc(NC(=O)C(Cl)Cl)c3)on2)CC1 [Compound 639]
- IC50: < 10 µM

Compound: O=C(Nc1cccc(-c2cc(-c3c(Cl)cccc3OCCC3CCNCC3)no2)c1)C(Cl)Cl [Compound 640]
- IC50: < 10 µM

Compound: O=C(Nc1cccc(-c2cc(-c3c(Cl)cccc3N3CCN(C(=O)C4CCC4)CC3)no2)c1)C(Cl)Cl [Compound 641]
- IC50: < 10 µM

Compound: O=C(Nc1cccc(-c2cc(-c3c(Cl)cccc3N3CCN(C(=O)c4ccccc4)CC3)no2)c1)C(Cl)Cl [Compound 642]
- IC50: < 10 µM

Compound: O=C(Nc1cccc(-c2cc(-c3c(Cl)cccc3N3CCN(C(=O)C4CCCO4)CC3)no2)c1)C(Cl)Cl (stereo not drawn) [Compound 643]
- IC50: < 10 µM

Compound: CC(C)C(=O)N1CCN(c2cccc(Cl)c2-c2cc(-c3cccc(NC(=O)C(Cl)Cl)c3)on2)CC1 [Compound 644]
- IC50: < 10 µM

Compound: CC(=O)N1CCC(CCOc2cccc(Cl)c2-c2cc(-c3cccc(NC(=O)C(Cl)Cl)c3)on2)CC1 [Compound 645]
- IC50: < 10 µM

Compound: O=C(Nc1cccc(-c2cc(-c3c(Cl)cccc3OCCC3CCN(C(=O)c4ccccn4)CC3)no2)c1)C(Cl)Cl [Compound 646]
- IC50: < 10 µM

Compound: O=C(Nc1cccc(-c2cc(-c3c(Cl)cccc3N3CCN(C(=O)CCc4ccccc4)CC3)no2)c1)C(Cl)Cl [Compound 647]
- IC50: < 10 µM

Compound: CCC(=O)N1CCN(c2cccc(Cl)c2-c2cc(-c3cccc(NC(=O)C(Cl)Cl)c3)on2)CC1 [Compound 648]
- IC50: < 10 µM

Compound: O=C(Nc1cccc(-c2cc(-c3c(Cl)cccc3N3CCN(Cc4ccncc4)CC3)no2)c1)C(Cl)Cl [Compound 650]
- IC50: < 10 µM

Compound: O=C(Nc1cccc(-c2cc(-c3c(Cl)cccc3N3CCN4CCCC4C3)no2)c1)C(Cl)Cl (stereo not drawn) [Compound 651]
- IC50: < 10 µM

Compound: O=C(Nc1cccc(-c2cc(-c3c(Cl)cccc3N3CCN(CCN4CCCC4)CC3)no2)c1)C(Cl)Cl [Compound 652]
- IC50: < 10 µM

Compound: O=C(Nc1cccc(-c2cc(-c3c(Cl)cccc3N3CCN(CCc4ccccn4)CC3)no2)c1)C(Cl)Cl [Compound 653]
- IC50: < 10 µM

Compound: O=C(Nc1cccc(-c2cc(-c3c(Cl)cccc3N3CCN(Cc4ccc(Cl)cc4)CC3)no2)c1)C(Cl)Cl [Compound 654]
- IC50: < 10 µM
